In PubChem BioAssay AID2060900 (Molecular Pharmacology Branch, DTP, NCI, 2025):
Values belong to the compound of their own block, whether it stands above or below them.

System: 521955-158-R2-J5-PDC complex spheroids, viability
Experiment: Anticancer human tumor 521955-158-R2-J5-PDC patient-derived pancreatic carcinoma cell line growth inhibition [RAS]
Details: for viability, T/C: stronger effect = lower value
Method in brief: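 Multi-cell-type spheroids: tumor cells plus HUVEC endothelial cells and mesenchymal stem cells. RAS-pathway inhibitors were combined with targeted agents, each dosed in half-log steps down from clinical Cmax, or from 10 microM when Cmax was unknown.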

[1] = curve of first compound, second compound 0.000949 µM
[2] = curve of first compound, second compound 0.003 µM
[3] = curve of first compound, second compound 0.00949 µM
[4] = curve of first compound, second compound 0.03 µM
[5] = curve of first compound, second compound 0.0949 µM
[6] = curve of first compound, second compound 0.3 µM
[7] = second compound 0.000949 µM, first compound 0.00316 µM
[8] = second compound 0.000949 µM, first compound 0.01 µM
[9] = second compound 0.000949 µM, first compound 0.0316 µM
[10] = second compound 0.000949 µM, first compound 0.1 µM
[11] = second compound 0.000949 µM, first compound 0.316 µM
[12] = second compound 0.000949 µM, first compound 1 µM
[13] = second compound 0.003 µM, first compound 0.00316 µM
[14] = second compound 0.003 µM, first compound 0.01 µM
[15] = second compound 0.003 µM, first compound 0.0316 µM
[16] = second compound 0.003 µM, first compound 0.1 µM
[17] = second compound 0.003 µM, first compound 0.316 µM
[18] = second compound 0.003 µM, first compound 1 µM
[19] = second compound 0.00949 µM, first compound 0.00316 µM
[20] = second compound 0.00949 µM, first compound 0.01 µM
[21] = second compound 0.00949 µM, first compound 0.0316 µM
[22] = second compound 0.00949 µM, first compound 0.1 µM
[23] = second compound 0.00949 µM, first compound 0.316 µM
[24] = second compound 0.00949 µM, first compound 1 µM
[25] = second compound 0.03 µM, first compound 0.00316 µM
[26] = second compound 0.03 µM, first compound 0.01 µM
[27] = second compound 0.03 µM, first compound 0.0316 µM
[28] = second compound 0.03 µM, first compound 0.1 µM
[29] = second compound 0.03 µM, first compound 0.316 µM
[30] = second compound 0.03 µM, first compound 1 µM
[31] = second compound 0.0949 µM, first compound 0.00316 µM
[32] = second compound 0.0949 µM, first compound 0.01 µM
[33] = second compound 0.0949 µM, first compound 0.0316 µM
[34] = second compound 0.0949 µM, first compound 0.1 µM
[35] = second compound 0.0949 µM, first compound 0.316 µM
[36] = second compound 0.0949 µM, first compound 1 µM
[37] = second compound 0.3 µM, first compound 0.00316 µM
[38] = second compound 0.3 µM, first compound 0.01 µM
[39] = second compound 0.3 µM, first compound 0.0316 µM
[40] = second compound 0.3 µM, first compound 0.1 µM
[41] = second compound 0.3 µM, first compound 0.316 µM
[42] = second compound 0.3 µM, first compound 1 µM
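Note: compound exposure lasted seven days before the viability read.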
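Throughout, for viability, T/C: spheroids also contain HUVEC endothelial cells and mesenchymal stem cells as stroma.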

IC50 [1]: < 3.16 nM | IC50 [2]: < 3.16 nM | IC50 [3]: < 3.16 nM | IC50 [4]: < 3.16 nM | IC50 [5]: < 3.16 nM | IC50 [6]: < 3.16 nM
SMILES: C=CC(=O)Nc1cc(Nc2nccc(-c3cn(C)c4ccccc34)n2)c(OC)cc1N(C)CCN(C)C + CCn1c(-c2cc(N3CCN(C)CC3)cnc2C(C)OC)c2c3cc(ccc31)-c1csc(n1)CC(NC(=O)C1CC1C)C(=O)N1CCCC(N1)C(=O)OCC(C)(C)C2
viability, T/C [7]: 44.6% | viability, T/C [8]: 53.5% | viability, T/C [9]: 38.4% | viability, T/C [10]: 43.4% | viability, T/C [11]: 35.7% | viability, T/C [12]: 23.1% | viability, T/C [13]: 40.9% | viability, T/C [14]: 46.9% | viability, T/C [15]: 50.2% | viability, T/C [16]: 43.5% | viability, T/C [17]: 35.3% | viability, T/C [18]: 18.7% | viability, T/C [19]: 41.3% | viability, T/C [20]: 39.6% | viability, T/C [21]: 27.2% | viability, T/C [22]: 31.3% | viability, T/C [23]: 21.5% | viability, T/C [24]: 8.47% | viability, T/C [25]: 19.2% | viability, T/C [26]: 23.2% | viability, T/C [27]: 19.4% | viability, T/C [28]: 18.8% | viability, T/C [29]: 14.4% | viability, T/C [30]: 5.46% | viability, T/C [31]: 16% | viability, T/C [32]: 9.37% | viability, T/C [33]: 12.8% | viability, T/C [34]: 8.37% | viability, T/C [35]: 11.6% | viability, T/C [36]: 2.68% | viability, T/C [37]: 16.4% | viability, T/C [38]: 10.6% | viability, T/C [39]: 9.7% | viability, T/C [40]: 8.57% | viability, T/C [41]: 6.24% | viability, T/C [42]: 3.02%

IC50 (curve of compound): 40.1 nM [middle of 4 runs]
SMILES: O=C(c1ccc(F)c(F)c1Nc1ccc(I)cc1F)N1CC(O)([C@@H]2CCCCN2)C1
viability, T/C (compound 0.00316 µM): 82% [middle of 4 runs] | viability, T/C (compound 0.01 µM): 71% [middle of 4 runs] | viability, T/C (compound 0.0316 µM): 51.7% [middle of 4 runs] | viability, T/C (compound 0.1 µM): 42.8% [middle of 4 runs] | viability, T/C (compound 0.316 µM): 33.9% [middle of 4 runs] | viability, T/C (compound 1 µM): 23.6% [middle of 4 runs]

IC50 [1]: < 31.6 nM | IC50 [2]: < 31.6 nM | IC50 [3]: < 31.6 nM | IC50 [4]: < 31.6 nM | IC50 [5]: < 31.6 nM | IC50 [6]: < 31.6 nM
SMILES: C[C@@H](NC(=O)c1ncnc(N)c1Cl)c1ncc(C(=O)Nc2cc(C(F)(F)F)c(Cl)cn2)s1 + CCn1c(-c2cc(N3CCN(C)CC3)cnc2C(C)OC)c2c3cc(ccc31)-c1csc(n1)CC(NC(=O)C1CC1C)C(=O)N1CCCC(N1)C(=O)OCC(C)(C)C2
viability, T/C [9]: 49.2% | viability, T/C [10]: 50.3% | viability, T/C [11]: 50.4% | viability, T/C [12]: 48.9% | viability, T/C (second compound 0.000949 µM, first compound 3.16 µM): 51.3% | viability, T/C (second compound 0.000949 µM, first compound 10 µM): 49% | viability, T/C [15]: 39.9% | viability, T/C [16]: 39.5% | viability, T/C [17]: 45.2% | viability, T/C [18]: 38.9% | viability, T/C (second compound 0.003 µM, first compound 3.16 µM): 47.9% | viability, T/C (second compound 0.003 µM, first compound 10 µM): 40.7% | viability, T/C [21]: 39.9% | viability, T/C [22]: 34.2% | viability, T/C [23]: 40.8% | viability, T/C [24]: 37% | viability, T/C (second compound 0.00949 µM, first compound 3.16 µM): 36.4% | viability, T/C (second compound 0.00949 µM, first compound 10 µM): 38.7% | viability, T/C [27]: 26.9% | viability, T/C [28]: 29.7% | viability, T/C [29]: 31% | viability, T/C [30]: 22.4% | viability, T/C (second compound 0.03 µM, first compound 3.16 µM): 29.2% | viability, T/C (second compound 0.03 µM, first compound 10 µM): 21.6% | viability, T/C [33]: 11.8% | viability, T/C [34]: 12.6% | viability, T/C [35]: 18.7% | viability, T/C [36]: 16.8% | viability, T/C (second compound 0.0949 µM, first compound 3.16 µM): 17.8% | viability, T/C (second compound 0.0949 µM, first compound 10 µM): 17.8% | viability, T/C [39]: 11.7% | viability, T/C [40]: 13.2% | viability, T/C [41]: 13.5% | viability, T/C [42]: 12.4% | viability, T/C (second compound 0.3 µM, first compound 3.16 µM): 15.2% | viability, T/C (second compound 0.3 µM, first compound 10 µM): 12.3%

IC50 [1]: 156 nM | IC50 [2]: 204 nM | IC50 [3]: 251 nM | IC50 [4]: 284 nM | IC50 [5]: 190 nM | IC50 [6]: 109 nM
SMILES: Nc1ccn(C2OC(CO)C(O)C2(F)F)c(=O)n1 (stereo not drawn) + CCn1c(-c2cccnc2C(C)OC)c2c3cc(ccc31)N1CCOC(CC(NC(=O)C(C(C)C)N(C)C(=O)C3(F)CCN(C(=O)C#CC(C)(C)N(C)C)CC3)C(=O)N3CCCC(N3)C(=O)OCC(C)(C)C2)C1
viability, T/C [7]: 112% | viability, T/C [8]: 80.2% | viability, T/C [9]: 75.4% | viability, T/C [10]: 56.8% | viability, T/C [11]: 51.6% | viability, T/C [12]: 14.4% | viability, T/C [13]: 97.8% | viability, T/C [14]: 90.3% | viability, T/C [15]: 79.3% | viability, T/C [16]: 67.1% | viability, T/C [17]: 39.6% | viability, T/C [18]: 11.8% | viability, T/C [19]: 85.3% | viability, T/C [20]: 91% | viability, T/C [21]: 75.9% | viability, T/C [22]: 79.8% | viability, T/C [23]: 42.6% | viability, T/C [24]: 15.6% | viability, T/C [25]: 95.5% | viability, T/C [26]: 78.9% | viability, T/C [27]: 69% | viability, T/C [28]: 69.4% | viability, T/C [29]: 53.4% | viability, T/C [30]: 10.1% | viability, T/C [31]: 79.5% | viability, T/C [32]: 77.9% | viability, T/C [33]: 62.5% | viability, T/C [34]: 65.2% | viability, T/C [35]: 41.2% | viability, T/C [36]: 11.2% | viability, T/C [37]: 72.2% | viability, T/C [38]: 66.9% | viability, T/C [39]: 59.6% | viability, T/C [40]: 51.8% | viability, T/C [41]: 36.5% | viability, T/C [42]: 12.6%
